Assay results from patent US8765669B2, “Glycosylated GLP-1 peptide” (Glytech, Inc., priority 2008, dated 2014).

Each compound was assayed against T1, DPP-IV (dipeptidyl peptidase IV from porcine kidney) (Sus scrofa, UniProt P22411) (assay: Test of resistance to dipeptidyl peptidase IV (DPP-IV)). Details: half-life (t1/2) in DPP-IV solution at 37° C., GLP-1 of Comparative Example 1 defined as standard (=1).
T1 construct: dipeptidyl peptidase IV from porcine kidney, product of SIGMA; purchased SIGMA; host or cells: porcine kidney (tissue-derived enzyme)
T1 sequence (P22411 whole entry): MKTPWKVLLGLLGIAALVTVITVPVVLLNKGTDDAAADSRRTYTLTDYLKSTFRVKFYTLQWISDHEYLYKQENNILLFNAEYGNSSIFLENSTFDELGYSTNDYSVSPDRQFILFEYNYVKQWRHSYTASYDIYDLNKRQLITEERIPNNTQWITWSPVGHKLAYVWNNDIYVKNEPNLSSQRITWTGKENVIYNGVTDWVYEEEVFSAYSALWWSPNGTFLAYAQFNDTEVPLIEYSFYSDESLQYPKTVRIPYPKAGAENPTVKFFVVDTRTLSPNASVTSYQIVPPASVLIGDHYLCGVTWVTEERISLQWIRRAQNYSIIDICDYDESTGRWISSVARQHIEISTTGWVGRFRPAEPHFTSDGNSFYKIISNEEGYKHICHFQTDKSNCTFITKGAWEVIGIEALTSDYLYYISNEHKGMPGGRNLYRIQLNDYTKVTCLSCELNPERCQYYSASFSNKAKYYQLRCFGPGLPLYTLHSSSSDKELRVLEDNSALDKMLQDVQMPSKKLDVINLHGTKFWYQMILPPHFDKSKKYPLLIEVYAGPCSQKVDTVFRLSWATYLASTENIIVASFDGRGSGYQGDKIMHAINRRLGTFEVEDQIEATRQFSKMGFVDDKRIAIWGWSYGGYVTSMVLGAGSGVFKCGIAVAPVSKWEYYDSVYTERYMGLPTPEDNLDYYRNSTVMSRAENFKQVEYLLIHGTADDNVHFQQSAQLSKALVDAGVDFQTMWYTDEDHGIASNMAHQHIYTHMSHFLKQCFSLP
Assay type: in vitro ADME
Protocol: Each solution mixture was adjusted with 100 mM sodium phosphate buffer to 100 μl in total and allowed to react at 37° C. A 10 μaliquot of the reaction solution was mixed with 15 μl of 10% trifluoroacetic acid prepared in advance in another Eppendorf tube.
For `CC[C@H](C)[C@H](NC(=O)[C@H](Cc1ccccc1)NC(=O)[C@H](CCC(=O)O)NC(=O)[C@H](CCCCN)NC(=O)[C@H](C)NC(=O)[C@H](C)NC(=O)[C@H](CCC(N)=O)NC(=O)CNC(=O)[C@H](CCC(=O)O)NC(=O)[C@H](CC(C)C)NC(=O)[C@H](Cc1ccc(O)cc1)NC(=O)[C@H](CO)NC(=O)[C@H](CO)NC(=O)[C@@H](NC(=O)[C@H](CC(=O)O)NC(=O)[C@H](CO)NC(=O)[C@@H](NC(=O)[C@H](Cc1ccccc1)NC(=O)[C@@H](NC(=O)CNC(=O)[C@H](CCC(=O)O)NC(=O)[C@H](C)NC(=O)[C@@H](N)Cc1c[nH]cn1)[C@@H](C)O)[C@@H](C)O)C(C)C)C(=O)N[C@@H](CSCC(=O)N[C@@H]1O[C@H](CO)[C@@H](O[C@@H]2O[C@H](CO)[C@@H](O[C@@H]3O[C@H](CO[C@H]4O[C@H](CO)[C@@H](O)[C@H](O)[C@@H]4O[C@@H]4O[C@H](CO)[C@@H](O[C@@H]5O[C@H](CO[C@]6(C(=O)O)C[C@H](O)[C@@H](NC(C)=O)[C@H]([C@H](O)[C@H](O)CO)O6)[C@H](O)[C@H](O)[C@H]5O)[C@H](O)[C@H]4NC(C)=O)[C@@H](O)[C@H](O[C@H]4O[C@H](CO)[C@@H](O)[C@H](O)[C@@H]4O[C@@H]4O[C@H](CO)[C@@H](O[C@@H]5O[C@H](CO[C@]6(C(=O)O)C[C@H](O)[C@@H](NC(C)=O)[C@H]([C@H](O)[C@H](O)CO)O6)[C@H](O)[C@H](O)[C@H]5O)[C@H](O)[C@H]4NC(C)=O)[C@@H]3O)[C@H](O)[C@H]2NC(C)=O)[C@H](O)[C@H]1NC(C)=O)C(=O)N[C@@H](Cc1c[nH]c2ccccc12)C(=O)N[C@@H](CC(C)C)C(=O)N[C@H](C(=O)N[C@@H](CCCCN)C(=O)NCC(=O)N[C@@H](CSCC(=O)N[C@@H]1O[C@H](CO)[C@@H](O[C@@H]2O[C@H](CO)[C@@H](O[C@@H]3O[C@H](CO[C@H]4O[C@H](CO)[C@@H](O)[C@H](O)[C@@H]4O[C@@H]4O[C@H](CO)[C@@H](O[C@@H]5O[C@H](CO[C@]6(C(=O)O)C[C@H](O)[C@@H](NC(C)=O)[C@H]([C@H](O)[C@H](O)CO)O6)[C@H](O)[C@H](O)[C@H]5O)[C@H](O)[C@H]4NC(C)=O)[C@@H](O)[C@H](O[C@H]4O[C@H](CO)[C@@H](O)[C@H](O)[C@@H]4O[C@@H]4O[C@H](CO)[C@@H](O[C@@H]5O[C@H](CO[C@]6(C(=O)O)C[C@H](O)[C@@H](NC(C)=O)[C@H]([C@H](O)[C@H](O)CO)O6)[C@H](O)[C@H](O)[C@H]5O)[C@H](O)[C@H]4NC(C)=O)[C@@H]3O)[C@H](O)[C@H]2NC(C)=O)[C@H](O)[C@H]1NC(C)=O)C(=O)NCC(=O)O)C(C)C` [Example 5, 30,36Cys-disialo oligosaccharide Chain Added GLP-1 Peptide], the “Relative Resistance” value was 7.5.
With `CC[C@H](C)[C@H](NC(=O)[C@H](Cc1ccccc1)NC(=O)[C@H](CCC(=O)O)NC(=O)[C@H](CCCCN)NC(=O)[C@H](C)NC(=O)[C@H](C)NC(=O)[C@H](CCC(N)=O)NC(=O)CNC(=O)[C@H](CCC(=O)O)NC(=O)[C@H](CC(C)C)NC(=O)[C@H](Cc1ccc(O)cc1)NC(=O)[C@H](CO)NC(=O)[C@H](CO)NC(=O)[C@@H](NC(=O)[C@H](CC(=O)O)NC(=O)[C@H](CO)NC(=O)[C@@H](NC(=O)[C@H](Cc1ccccc1)NC(=O)[C@@H](NC(=O)CNC(=O)[C@H](CCC(=O)O)NC(=O)[C@H](C)NC(=O)[C@@H](N)Cc1c[nH]cn1)[C@@H](C)O)[C@@H](C)O)C(C)C)C(=O)N[C@@H](CSCC(=O)N[C@@H]1O[C@H](CO)[C@@H](O)[C@H](O[C@@H]2O[C@H](C(=O)O)[C@@H](O[C@@H]3O[C@H](CO)[C@@H](O)[C@H](O[C@@H]4O[C@H](C(=O)O)[C@@H](O[C@@H]5O[C@H](CO)[C@@H](O)[C@H](O[C@@H]6O[C@H](C(=O)O)[C@@H](O[C@@H]7O[C@H](CO)[C@@H](O)[C@H](O[C@@H]8O[C@H](C(=O)O)[C@@H](O)[C@H](O)[C@H]8O)[C@H]7NC(C)=O)[C@H](O)[C@H]6O)[C@H]5NC(C)=O)[C@H](O)[C@H]4O)[C@H]3NC(C)=O)[C@H](O)[C@H]2O)[C@H]1NC(C)=O)C(=O)N[C@@H](Cc1c[nH]c2ccccc12)C(=O)N[C@@H](CC(C)C)C(=O)N[C@H](C(=O)N[C@@H](CCCCN)C(=O)NCC(=O)N[C@@H](CCCNC(=N)N)C(=O)NCC(=O)O)C(C)C` [Example 7, 30Cys-hyaluronic acid octasaccharide (HA-8) Added GLP-1 Peptide] the “Relative Resistance” value was 3.4.
With `CC[C@H](C)[C@H](NC(=O)[C@H](Cc1ccccc1)NC(=O)[C@H](CCC(=O)O)NC(=O)[C@H](CCCCN)NC(=O)[C@H](C)NC(=O)[C@H](C)NC(=O)[C@H](CCC(N)=O)NC(=O)[C@H](CSCC(=O)N[C@@H]1O[C@H](CO)[C@@H](O[C@@H]2O[C@H](CO)[C@@H](O[C@@H]3O[C@H](CO[C@H]4O[C@H](CO)[C@@H](O)[C@H](O)[C@@H]4O[C@@H]4O[C@H](CO)[C@@H](O[C@@H]5O[C@H](CO[C@]6(C(=O)O)C[C@H](O)[C@@H](NC(C)=O)[C@H]([C@H](O)[C@H](O)CO)O6)[C@H](O)[C@H](O)[C@H]5O)[C@H](O)[C@H]4NC(C)=O)[C@@H](O)[C@H](O[C@H]4O[C@H](CO)[C@@H](O)[C@H](O)[C@@H]4O[C@@H]4O[C@H](CO)[C@@H](O[C@@H]5O[C@H](CO[C@]6(C(=O)O)C[C@H](O)[C@@H](NC(C)=O)[C@H]([C@H](O)[C@H](O)CO)O6)[C@H](O)[C@H](O)[C@H]5O)[C@H](O)[C@H]4NC(C)=O)[C@@H]3O)[C@H](O)[C@H]2NC(C)=O)[C@H](O)[C@H]1NC(C)=O)NC(=O)[C@H](CCC(=O)O)NC(=O)[C@H](CC(C)C)NC(=O)[C@H](Cc1ccc(O)cc1)NC(=O)[C@H](CO)NC(=O)[C@H](CO)NC(=O)[C@@H](NC(=O)[C@H](CC(=O)O)NC(=O)[C@H](CO)NC(=O)[C@@H](NC(=O)[C@H](Cc1ccccc1)NC(=O)[C@@H](NC(=O)CNC(=O)[C@H](CCC(=O)O)NC(=O)[C@H](C)NC(=O)[C@@H](N)Cc1c[nH]cn1)[C@@H](C)O)[C@@H](C)O)C(C)C)C(=O)N[C@@H](CSCC(=O)N[C@@H]1O[C@H](CO)[C@@H](O[C@@H]2O[C@H](CO)[C@@H](O[C@@H]3O[C@H](CO[C@H]4O[C@H](CO)[C@@H](O)[C@H](O)[C@@H]4O[C@@H]4O[C@H](CO)[C@@H](O[C@@H]5O[C@H](CO[C@]6(C(=O)O)C[C@H](O)[C@@H](NC(C)=O)[C@H]([C@H](O)[C@H](O)CO)O6)[C@H](O)[C@H](O)[C@H]5O)[C@H](O)[C@H]4NC(C)=O)[C@@H](O)[C@H](O[C@H]4O[C@H](CO)[C@@H](O)[C@H](O)[C@@H]4O[C@@H]4O[C@H](CO)[C@@H](O[C@@H]5O[C@H](CO[C@]6(C(=O)O)C[C@H](O)[C@@H](NC(C)=O)[C@H]([C@H](O)[C@H](O)CO)O6)[C@H](O)[C@H](O)[C@H]5O)[C@H](O)[C@H]4NC(C)=O)[C@@H]3O)[C@H](O)[C@H]2NC(C)=O)[C@H](O)[C@H]1NC(C)=O)C(=O)N[C@@H](Cc1c[nH]c2ccccc12)C(=O)N[C@@H](CC(C)C)C(=O)N[C@H](C(=O)N[C@@H](CCCCN)C(=O)NCC(=O)N[C@@H](CCCNC(=N)N)C(=O)NCC(=O)O)C(C)C` [Example 3, 22 and 30Cys-disialo oligosaccharide Chain Added GLP-1] the “Relative Resistance” value was 32.5.
